Data from PubChem BioAssay (NCI).
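Exposure lasted 48 hours, with cells grown in 96-well plates and compounds tested at five concentrations. TGI: concentration producing complete growth inhibition.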

Legend:
Assay in all cases: DTP human tumour cell line panel, 48 h
[1] = tested on: HCT-15 colon
[2] = tested on: UACC-62 melanoma
[3] = tested on: BT-549 breast
[4] = tested on: COLO 205 colon
[5] = tested on: SNB-19 CNS
[6] = tested on: SK-OV-3 ovarian
[7] = tested on: SW-620 colon
[8] = tested on: EKVX NSCLC
[9] = tested on: SK-MEL-2 melanoma
[10] = tested on: MDA-MB-231 breast
[11] = tested on: K-562 leukemia

SMILES	TGI [1] [µM]	TGI [2] [µM]	TGI [3] [µM]	TGI [4] [µM]	TGI [5] [µM]	TGI [6] [µM]	TGI [7] [µM]	TGI [8] [µM]	TGI [9] [µM]	TGI [10] [µM]	TGI [11] [µM]
CN(C)CC1CCC/C(=C\c2ccccc2)C1=O (stereo unspecified)	4.67	20.2	23.1	5.27	30.5	34	3.07	33.7	18.9	4.18	
COc1ccc2c(c1OC)C(=O)N/C2=C\c1c(CCN(C)C)cc2c(c1OC)OCO2	> 100		> 100	> 100	> 100	> 100	> 100	> 100		> 100	> 100
COC(=O)C(=O)C(/C(=N/N)C(=O)Nc1ccccc1C(N)=O)c1nc2ccc([N+](=O)[O-])cc2[nH]c1=O (stereo unspecified)	> 100	> 100		> 100	> 100		> 100	> 100	> 100		> 100
CCOC(=O)C1(N)CC1	> 100				> 100		> 100	> 100		> 100	> 100
COc1ccc(-c2nc3c(C(=O)NCCN(C)C)cccc3c3ccccc23)cc1	9.46	4.66	22.3	4.51	11.7		14.5	19.6	18.4	12.2	4.68
CCN(CC)Cc1cc(Nc2ccnc3ccc4nn(C)nc4c23)ccc1O	43.8	27.4		19.1	> 100	57.7	28.2				> 100
COc1ccccc1NC(=O)CC(=O)N1N=C(c2ccccc2)C(N=Nc2ccc(Cl)cc2)C1=O (stereo unspecified)	> 100	89.7		> 100	> 100	51.8	> 100	> 100	> 100		> 100
CN1CC2=C(NC(=S)NC2c2ccccc2Cl)/C(=C/c2ccccc2Cl)C1 (stereo unspecified)	> 100	> 100		60.4	> 100	> 100	> 100	> 100	> 100	> 100	> 100
CCOc1cccc(-c2cc(=O)c3cc4c(cc3[nH]2)OCO4)c1	0.52	21.1	> 100		> 27.1		> 100	> 100	24.9		
O=[N+]([O-])C(/C=C(\Cl)[N+](=O)[O-])=C(N1CCCCC1)N1CCCCC1	68	60.8		55.5	> 100	> 100		> 100	> 100	> 100	66.9
CCCCCCCCCCCCC(Br)C(C)=O (stereo unspecified)	> 100	> 100		> 100	> 100	> 100	> 100	> 100	> 100		
C#CCOCn1cc(C)c(=O)[nH]c1=O	> 100	> 100		> 100	> 100	> 100	> 100	> 100	> 100	> 100	> 100
Cc1ccsc1C(=S)Nc1ccc(Cl)c(/C=N/OC(C)C)c1	> 100	> 100	> 100	47.3	> 100	> 100	> 100	> 100	> 100	> 100	
S=C1CC(c2ccccc2)Sc2cc(Cl)ccc2N1 (stereo unspecified)	> 100	44.9	> 100	> 100	38.7	19.9		> 100		20.7	11.2
COc1cc(CNc2cnc3ccc(N)cc3n2)cc(OC)c1OC	> 100	> 100		> 100	> 100	> 100	> 100	> 100	> 100		> 100
Cc1ccc(-c2nnc3s/c(=C\c4ccc(N(C)C)cc4)c(=O)n23)cc1		> 100		> 100	> 100	> 100	> 100	> 100	> 100		
O=S(=O)(c1cc(Cl)ccc1Cl)N1CCN(c2cccc(Cl)c2)CC1	> 100		> 100		> 100		> 100	> 100		> 100	> 100
Cc1ccc(C(=O)Oc2ccc(/C=C3\CCC/C(=C\c4ccc(OC(=O)c5ccc(C)cc5)cc4)C3=O)cc2)cc1	> 100	> 100	> 100	> 100	> 100		> 100	> 100	> 100	> 100	
O=C1[C@@H](O)[C@@H]2CCCC[C@@]23CCCN13	> 100	> 100		> 100	> 100	> 100		> 100	> 100	> 100	> 100
O=C(O)CCN(CCCN(CCC(=O)O)CCC(=O)O)CCC(=O)O	> 100	> 100		> 100		> 100	> 100	> 100	> 100		> 100
CN(C)C(=NC#N)N(Cc1ccccc1)Cc1ccccc1	30.1	> 100		> 100	> 100	> 100	33.7	> 100	> 100		50.9
CC(C)C(Sc1nc(-c2ccccc2)c(-c2ccccc2)[nH]1)c1n[nH]c(=S)n1-c1ccccc1 (stereo unspecified)	> 100	25.3		62.1	56.8	> 100	> 100	65.4	43		
Cc1ccccc1Nc1nc(NNC(=O)Cc2ccccc2)nc(NNC(=O)c2ccncc2)n1	> 10	> 10	> 10	> 10		> 10		> 10		> 10	> 10
O=c1[nH]c2c(c(=O)[nH]1)C(c1ccc([N+](=O)[O-])cc1)c1c([nH]c(=O)[nH]c1=O)O2	> 100	> 100	> 100	> 100	> 100	> 100	> 100	> 100	> 100	> 100	
